One data set deals with T1, human tyrosinase (Homo sapiens, UniProt P14679).
T1 construct: endogenous in cells; host or cells: normal human melanocytes obtained from abdominal plasty
T1 sequence (P14679 19-529): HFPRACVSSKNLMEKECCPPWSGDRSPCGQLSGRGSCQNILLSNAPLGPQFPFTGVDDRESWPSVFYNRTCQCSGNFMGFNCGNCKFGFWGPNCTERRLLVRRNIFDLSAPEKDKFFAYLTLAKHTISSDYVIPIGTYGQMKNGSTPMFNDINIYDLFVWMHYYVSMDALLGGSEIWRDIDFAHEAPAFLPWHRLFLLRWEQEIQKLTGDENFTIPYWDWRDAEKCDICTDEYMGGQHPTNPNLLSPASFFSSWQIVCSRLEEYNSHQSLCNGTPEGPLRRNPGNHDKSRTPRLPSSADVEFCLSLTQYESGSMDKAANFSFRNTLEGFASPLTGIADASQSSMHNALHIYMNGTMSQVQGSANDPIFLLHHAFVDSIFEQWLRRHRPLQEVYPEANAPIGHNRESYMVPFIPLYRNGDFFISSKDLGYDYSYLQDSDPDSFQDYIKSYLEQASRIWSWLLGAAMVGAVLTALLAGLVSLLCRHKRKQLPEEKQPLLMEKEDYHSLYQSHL
Briefly: Anti-human tyrosinase activity in normal human melanocytes (MBTH/L-Dopa, OD490). It counts as cell-based. The note with it: normal human melanocytes, read-out: % inhibition of activity of tyrosinase +/− standard deviation. Here is the method:
Study of the inhibition of tyrosinase by the hydroxytyrosol dihydrosinapate of the invention of formula (IIa), in comparison with the prior-art ferulic acid derivative, by quantitative analysis of the human tyrosinase activity of melanocytes cultured as a monolayer following application of the compound under test. Normal human melanocytes (obtained from abdominal plasty) are seeded in a 24-well plate at 80000 cells per well. They are cultured until confluence, and the compounds under test are applied in the culture media for 24 hours. After 24 hours, the media are removed and the melanocytes are detached by mechanical action. Extraction is carried out by thermal shock and then the supernatants are recovered and incubated with MBTH (methyl benzothiazolinone-hydrazone) (Sigma) and L-Dopa (Sigma). The optical density (OD) at 490 nm (OD490) is measured after 30 minutes of incubation, and the inhibition of tyrosinase is calculated according to the following formula: % inhibition=100−[100×(OD490 sample/level of proteins in sample)/(OD490 negative control/level of proteins in negative control)] The OD490 is therefore related to the level of protein, which is the measurement in each culture well. […] The results are presented as % inhibition of activity of tyrosinase, in Table 2.

Data set [1] in a line: TBARS test, lipid peroxidation of UVB-irradiated liposomal suspension. The note with it: for % inhibition of lipid peroxidation: UVB 2 hours. The protocol:
Study of the radical scavenger activity of the hydroxytyrosol dihydrosinapate of the invention of formula (IIa) and of the prior-art ferulic acid derivative by the TBARS test.
Two identical 96-well plates are produced according to a defined plate plan. 50 μL of a sample mixture prepared by diluting a solution of a test compound or of a negative control (vehicle medium without test compound) or of a positive control (D-L-alpha-tocopherol) to 1/10 in a liposomal suspension are distributed per well, in quadruplicate. One of the two plates is irradiated with UVB for 2 hours. The other plate, serving as a control, is incubated in the absence of light and at ambient temperature for 2 hours.
At the end of irradiation, an amount of 100 μL of 20% trichloroacetic acid solution was added per well, followed by an amount of 34 μL of 1% thiobarbituric acid solution. The plates are then incubated at 105° C. for 25 minutes.
The contents of each well are centrifuged at 5700 rpm for 5 minutes, and then an amount of 100 μL of supernatant was deposited in new plates, according to the same plan, and the absorbance was read off at 530 nm.
The positive experimental control was D-L-alpha-tocopherol, at a concentration of 1%, for which a percentage inhibition of 80% was obtained.

For data set [2], the system named is melanocytes of murine line B16. As to the kind of experiment: Inhibition of melanin production in B16 melanocytes stimulated with an α-MSH derivative. The note with it: Mus musculus, B16 cells. The format is cell-based. Here is the method:
Determination of the percentage inhibition of melanin production by the hydroxytyrosol dihydrosinapate of the invention of formula (IIa) or the ferulic acid derivative of the prior art, by quantitative analysis of the total melanin synthesized by melanocytes of murine line B16 following application of the compound under test.
Melanocytes (B16 cells) are cultured for 24 hours in a 96-well plate in an appropriate medium. […] After 72 hours of incubation, the culture medium is withdrawn, and total melanin is quantified by measuring the absorbance at 405 nm against a standard range of synthetic melanin from 0.78 to 100 μg/mL.
The results are expressed as percentage inhibition of melanin production relative to the negative control, and are presented in Table 1.
The inhibitory activity on melanin production of the product tested is calculated as a percentage according to the following formula:
% inhibition=[(mean stimulated control−mean basal control)−(sample value−mean basal control)]/(mean stimulated control−mean basal control)×100
where: • Mean stimulated control: mean of the values obtained with a medium supplemented with an alpha-MSH derivative • Sample value: value obtained with the compound under test • Mean basal control: Mean of the values obtained with a medium not supplemented with an alpha-MSH derivative

The nature of data set [3]: DPPH radical scavenger test (acellular). The note with it: 30 minutes. From the text:
Study of the radical scavenger activity of the hydroxytyrosol dihydrosinapate of the invention of formula (IIa) and of the prior-art ferulic acid derivative in an acellular in vitro model, using DPPH.
1,1-Diphenyl-2-picrylhydrazyl, owing to its paramagnetic structure, is able to accept an electron or a hydrogen radical in order to become a stable diamagnetic molecule.
The addition of a compound which provides electrons gives rise to decoloring of the 1,1-diphenyl-2-picrylhydrazyl in a manner proportional to the number of electrons accepted by the radical, and this decoloration can be monitored by measuring the absorbance at 530 nm (OD530).
[…] At the end of the incubation, the radical scavenger activity of the compound under test is evaluated by measuring the absorbance of the solution at 530 nm.
The results are presented as % inhibition of the DPPH radical, in Table 3a).
The radical scavenger activity of the test product is calculated as a percentage, according to the following formula:
100−((OD530 in the presence of the compound under test/OD530 in the absence of compound)×100)

In data set [4] the test system is keratinocytes from the A431 line. As to the kind of experiment: Antiinflammatory activity: release of E2 prostaglandins by UVB-irradiated keratinocytes (ELISA). It counts as cell-based. The protocol:
Study of the antiinflammatory activity of the hydroxytyrosol dihydrosinapate of the invention of formula (IIa), by measurement of the inhibition of release of E2 prostaglandins by keratinocytes under the effect of UVB.
The keratinocytes from the A431 line are cultured in an appropriate medium at 37° C. for 72 hours under 5% CO2. The culture medium is then withdrawn and replaced with the medium containing the products under test, and also the positive and negative controls. The cells are subsequently irradiated with UV B at 30 mJ/cm2. The cells are incubated for an extra 24 hours at 37° C. under 5% CO2. The cell supernatants are subsequently recovered, and the E2 prostaglandins (PGE2) released are quantified by an ELISA assay.
An amount of 100 μL of each sample, control or PGE2 standard is transferred to the wells of a 96-well plate, which are coated with antibodies directed against rat immunoglobulin G (IgG). Then an amount of 25 μL of PGE2-peroxidase conjugate is added to each well, followed by an amount of 25 μL of anti-PGE2 monoclonal antibody. The plate is incubated at 4° C. overnight. The wells are then rinsed and an amount of 100 μL of peroxidase substrate is added. After 15 minutes of incubation at ambient temperature, the optical density is read off at 450 nm. The amount of prostaglandin E2 released after irradiation is deduced from a commercial PGE2 standard range from 0 to 400 pg/mL of PGE2.
The negative control, represented by the cells which were not treated with samples and which underwent irradiation by UV B, gave rise to 100% release of PGE2. The positive experimental control is aspirin, which at 0.03% gave rise to 5%+/−2% release of PGE2.
Background: In an ELISA, binding on a coated surface is turned into a signal by an enzyme label.

The test system of a further data set is melanocytes. Briefly: Cytotoxicity, MTT cell viability on melanocytes. It counts as cell-based. The note with it: 0.25%, positive cytotoxicity control. The protocol: (§1) Study of cell viability following application of the hydroxytyrosol dihydrosinapate of the invention of formula (IIa) to keratinocytes or melanocytes.
(§2) The cells (keratinocytes or melanocytes) were cultured in a 96-well plate at 37° C. under 5% CO2 in an appropriate medium until confluence. The medium was withdrawn and then an amount of 200 μL of a 0.5 mg/mL MTT solution was added. The plates were then incubated at 37° C. for 3 hours, after which the MTT solution was withdrawn from each well and replaced with DMSO. The plates were agitated for 15 minutes, and the optical density was measured at 550 nm.
(§3) The negative cytotoxicity control is PBS. The positive cytotoxicity control is 0.25% SDS. 0.1% DMSO was used as control.

In another data set the test system is keratinocytes. As to the kind of experiment: Cytotoxicity, MTT cell viability on keratinocytes. The format is cell-based. To be noted: 0.25%, positive cytotoxicity control. The protocol:
as §1, §2, §3

With `OC[C@H]1O[C@@H](Oc2ccc(O)cc2)[C@H](O)[C@@H](O)[C@@H]1O` [Arbutin, arbutin, reference compound], on human tyrosinase (1 mM), the inhibition at 1000 µM amounted to 65%.

Turning to `Cc1c(C)c2c(c(C)c1O)CCC(C)(CCCC(C)CCCC(C)CCCC(C)C)O2` [D-L-alpha-tocopherol], the “percentage inhibition (lipid peroxidation)” value in data set [1] (positive control at a concentration of 1%) stood at 80%.

With `COc1cc(/C=C/C(=O)NCCc2ccc(O)c(O)c2)ccc1O` [Prior-art ferulic acid derivative, N-trans-feruloyldopamine, reference compound], the inhibition at 10 µM in data set [2] (10 μM, 72 hours, read-out: % inhibition of melanin +/− standard deviation) was 37%; at human tyrosinase (10 μM, 24 hours) it was 18.8%. Further, the inhibition at 30 µM in data set [2] (30 μM, 72 hours, read-out: % inhibition of melanin +/− standard deviation) is 76%. The inhibition at 50 µM in data set [2] (50 μM, 72 hours, read-out: % inhibition of melanin +/− standard deviation) was 88%. Further, the “% inhibition of the DPPH radical” value in data set [3] (1 μM) is recorded as 6.02 +/− 0.758%; in data set [3] (5 μM), 35.02 +/− 1.209%; in data set [3] (10 μM) it was 61.85 +/− 1.35%; in data set [3] (30 μM) it was 89.91 +/− 0.66%; in data set [3] (50 μM) it was 89.91 +/− 0.59%; in data set [3] (100 μM), 89.91 +/− 0.66%. Besides, the “% inhibition of the DPPH radical” value in data set [3] (1000 μM) was 90.99 +/− 0.46%. Also, the inhibition at 1 µM on human tyrosinase (1 μM, 24 hours) was -9.22%. Also, the inhibition at 100 µM at human tyrosinase (100 μM, 24 hours) turned out to be 67.8%. For the same compound, the “% inhibition of lipid peroxidation” value is listed as −16.95% in data set [1] (1 μM after dilution to 1/10th in the liposomal suspension); 6.69% in data set [1] (5 μM after dilution to 1/10th in the liposomal suspension); 11.77% in data set [1] (30 μM after dilution to 1/10th in the liposomal suspension); 31.74% in data set [1] (50 μM after dilution to 1/10th in the liposomal suspension); 64.04% in data set [1] (100 μM after dilution to 1/10th in the liposomal suspension); 94.72% in data set [1] (1000 μM after dilution to 1/10th in the liposomal suspension).

Consider `COc1cc(CCC(=O)OCCc2ccc(O)c(O)c2)cc(OC)c1O`, for which the “inhibition of prostaglandin E2 release (in words)” value in data set [4] (keratinocytes, 30 μM, after irradiation with UVB) is “greatly inhibited prostaglandin E2 release”.

Regarding `CC(=O)Oc1ccccc1C(=O)O` [aspirin, reference compound], the “% release of PGE2 after irradiation” value in data set [4] (A431 keratinocytes, 0.03%, UV B 30 mJ/cm2, positive control) turned out to be 5%+/−2%.

Turning to `O=c1cc(CO)occ1O` [Kojic acid, kojic acid], the inhibition at 25 µg/mL in data set [2] (positive control at 0.025 mg/mL, read-out: percentage inhibition of melanin production) came out at 50%.

For `CCCCCCCCCCCCOS(=O)(=O)[O-].[Na+]` [SDS, reference compound], the entries for the “Percentage cell viability, Mean” value in the data set with melanocytes and with keratinocytes were 0.8% and 1.3%, respectively.
